According to paper PMC12901071 (Scientific Reports, 2026):

Biological target: T1, human membrane progestin receptor α (hmPRα) (Homo sapiens, UniProt Q86WK9)
T1 sequence (Q86WK9 1-346): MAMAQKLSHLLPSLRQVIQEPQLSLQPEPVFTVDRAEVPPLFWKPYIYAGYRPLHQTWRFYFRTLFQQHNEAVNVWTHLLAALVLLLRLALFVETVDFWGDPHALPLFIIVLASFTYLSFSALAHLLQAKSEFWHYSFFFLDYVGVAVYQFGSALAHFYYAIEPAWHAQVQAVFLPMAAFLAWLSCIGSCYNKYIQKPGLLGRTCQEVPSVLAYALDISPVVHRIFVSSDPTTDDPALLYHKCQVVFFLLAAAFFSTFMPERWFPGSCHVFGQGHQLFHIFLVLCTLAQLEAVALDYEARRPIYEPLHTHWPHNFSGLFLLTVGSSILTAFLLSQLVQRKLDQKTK
Experiment: GQD-hmPRα fluorescence competition with P4-BSA-FITC
Assay type: binding

Compound | IC50
CCCC(O)C(=O)OC(CCC)C(=O)O (centres unmarked) [1-CB 2-HPNA, 1-carboxybutyl 2-hydroxypentanoate] | 1260 nM
CC(=O)[C@H]1CC[C@H]2[C@@H]3CCC4=CC(=O)CC[C@]4(C)[C@H]3CC[C@]12C [progesterone] | 1900 nM
